Source: ChEMBL document CHEMBL4382196, “Unraveling the Prenylation-Cancer Paradox in Multiple Myeloma with Novel Geranylgeranyl Pyrophosphate Synthase (GGPPS) Inhibitors” (J Med Chem, 2018)
Activity calls are given as the source filed them. The rule behind the calls is not given here.

Legend:
[1] = biological target: Geranylgeranyl pyrophosphate synthase (Homo sapiens, UniProt O95749, Y246D)
RPMI-8226 [2] = experiment: cells; details: Homo sapiens, RPMI-8226, 72 h
Hydroxyapatite = experiment: Binding affinity to bone mineral hydroxyapatite at 50 uM by 1H NMR assay
RPMI-8226 [3] = experiment: Induction of apoptosis in human RPMI8226 cells assessed as viable cells at 10 uM after 72 hrs by APC Annexin V/eFluor-780-viability double staining-based FACS analysis (reference value: 87.3%); type: functional; details: RPMI-8226, 72 h, read-out: Activity
RPMI-8226 [4] = experiment: Induction of apoptosis in human RPMI8226 cells assessed as early apoptotic cells at 10 uM after 72 hrs by APC Annexin V/eFluor-780-viability double staining-based FACS analysis (reference value: 3.31%); type: functional
RPMI-8226 [5] = experiment: Induction of apoptosis in human RPMI8226 cells assessed as late apoptotic cells at 10 uM after 72 hrs by APC Annexin V/eFluor-780-viability double staining-based FACS analysis (reference value: 5.80%); type: functional
RPMI-8226 [6] = experiment: Induction of apoptosis in human RPMI8226 cells assessed as necrotic cells at 10 uM after 72 hrs by APC Annexin V/eFluor-780-viability double staining-based FACS analysis (reference value: 3.60%); type: functional
RPMI-8226 [7] = experiment: Induction of apoptosis in human RPMI8226 cells assessed as necrotic cells at 1 uM after 72 hrs by APC Annexin V/eFluor-780-viability double staining-based FACS analysis (reference value: 3.60%); type: functional
RPMI-8226 [8] = experiment: Induction of apoptosis in human RPMI8226 cells assessed as early apoptotic cells at 1 uM after 72 hrs by APC Annexin V/eFluor-780-viability double staining-based FACS analysis (reference value: 3.31%); type: functional
RPMI-8226 [9] = experiment: Induction of apoptosis in human RPMI8226 cells assessed as viable cells at 1 uM after 72 hrs by APC Annexin V/eFluor-780-viability double staining-based FACS analysis (reference value: 87.3%); type: functional; details: RPMI-8226, 72 h, read-out: Activity
RPMI-8226 [10] = experiment: Induction of apoptosis in human RPMI8226 cells assessed as late apoptotic cells at 1 uM after 72 hrs by APC Annexin V/eFluor-780-viability double staining-based FACS analysis (reference value: 5.80%); type: functional
[11] = biological target: T1, Farnesyl pyrophosphate synthase (Homo sapiens) (UniProt P14324); experiment: Inhibition of human FPPS at 10 uM using [14C]-IPP and […] after 10 mins by scintillation counting
T1 sequence (whole entry): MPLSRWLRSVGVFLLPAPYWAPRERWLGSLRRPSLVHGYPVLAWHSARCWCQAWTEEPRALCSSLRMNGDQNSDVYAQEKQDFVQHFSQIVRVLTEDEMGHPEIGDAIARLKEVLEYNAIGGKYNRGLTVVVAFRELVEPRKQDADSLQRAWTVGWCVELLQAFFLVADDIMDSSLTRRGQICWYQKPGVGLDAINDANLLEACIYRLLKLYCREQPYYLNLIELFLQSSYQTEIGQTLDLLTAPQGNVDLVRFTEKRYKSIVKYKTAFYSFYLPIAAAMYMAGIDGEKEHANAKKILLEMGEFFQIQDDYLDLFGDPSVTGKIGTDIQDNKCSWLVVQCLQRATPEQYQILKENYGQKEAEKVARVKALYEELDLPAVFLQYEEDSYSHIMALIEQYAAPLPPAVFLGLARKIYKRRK

[12] = biological target: T2, Geranylgeranyl pyrophosphate synthase (Homo sapiens) (UniProt O95749); experiment: Inhibition of human N-terminal His6-tagged GGPPS expressed in Escherichia coli BL21(DE3) at 10 uM using [14C]-IPP and FPP as substrates after 10 mins by scintillation counting
T2 sequence (whole entry): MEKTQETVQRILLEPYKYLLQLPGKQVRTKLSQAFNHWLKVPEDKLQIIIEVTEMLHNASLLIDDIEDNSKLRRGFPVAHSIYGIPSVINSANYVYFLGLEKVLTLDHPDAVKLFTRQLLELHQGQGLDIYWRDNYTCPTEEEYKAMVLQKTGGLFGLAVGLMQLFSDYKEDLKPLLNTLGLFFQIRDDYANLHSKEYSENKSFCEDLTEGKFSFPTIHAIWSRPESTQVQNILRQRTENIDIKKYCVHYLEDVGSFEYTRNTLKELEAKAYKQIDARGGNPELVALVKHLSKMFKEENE

RPMI-8226 [13] = experiment: Antiproliferative activity against human RPMI8226 cells at 10 uM after 72 hrs by MTT assay; type: functional, cell-based
RPMI-8226 [14] = experiment: Induction of apoptosis in human RPMI8226 cells assessed as necrotic cells at 10 nM after 72 hrs by APC Annexin V/eFluor-780-viability double staining-based FACS analysis (reference value: 3.60%); type: functional
RPMI-8226 [15] = experiment: Induction of apoptosis in human RPMI8226 cells assessed as late apoptotic cells at 10 nM after 72 hrs by APC Annexin V/eFluor-780-viability double staining-based FACS analysis (reference value: 5.80%); type: functional
RPMI-8226 [16] = experiment: Induction of apoptosis in human RPMI8226 cells at 10 nM after 72 hrs in presence of GGOH by APC Annexin V/eFluor-780-viability double staining-based FACS analysis; type: functional, cell-based
RPMI-8226 [17] = experiment: Induction of apoptosis in human RPMI8226 cells assessed as viable cells at 10 nM after 72 hrs by APC Annexin V/eFluor-780-viability double staining-based FACS analysis (reference value: 87.3%); type: functional; details: RPMI-8226, 72 h, read-out: Activity
RPMI-8226 [18] = experiment: Induction of apoptosis in human RPMI8226 cells assessed as early apoptotic cells at 10 nM after 72 hrs by APC Annexin V/eFluor-780-viability double staining-based FACS analysis (reference value: 3.31%); type: functional
[19] = biological target: T3, Geranylgeranyl pyrophosphate synthase (Homo sapiens, UniProt O95749)
T3 sequence (O95749 whole entry): T2 sequence (whole entry)

[20] = biological target: T4, Farnesyl pyrophosphate synthase (Homo sapiens, UniProt P14324); experiment: Inhibition of human FPPS using [14C]-IPP and […] after 10 mins by scintillation counting
T4 sequence (P14324 whole entry): T1 sequence (whole entry)

MIA PaCa-2 = experiment: Antiproliferative activity against human MIAPaCa2 cells at 10 uM after 72 hrs by celltiter-glo luminescent assay; type: functional, cell-based
[21] = Half life in Sprague-Dawley rat liver microsomes by LC-MS/MS analysis; type: ADME, Microsome
[22] = Hepatotoxicity in Vk*MYC transgenic mouse model assessed as effect of serum ALT levels at 3 mg/kg/day, ip administered over 14 days and measured at 4 hrs post last dose relative to control; type: toxicity, organism-based; details: in vivo
RPMI-8226 [23] = experiment: Induction of apoptosis in human RPMI8226 cells assessed as early apoptotic cells at 1 uM after 72 hrs in presence GGOH by APC Annexin V/eFluor-780-viability double staining-based FACS analysis (reference value: 3.31%); type: functional
[24] = Half life in CD1 mouse liver microsomes by LC-MS/MS analysis; type: ADME, Microsome
RPMI-8226 [25] = experiment: Induction of apoptosis in human RPMI8226 cells assessed as necrotic cells at 1 uM after 72 hrs in presence GGOH by APC Annexin V/eFluor-780-viability double staining-based FACS analysis (reference value: 3.60%); type: functional
[26] = Toxicity in Vk*MYC transgenic mouse model assessed as weight loss at 3 mg/kg/day, ip administered over 14 days and measured at 4 hrs post last dose (reference value: 10 to 16%); type: organism-based; details: in vivo
[27] = Half life in human liver microsomes by LC-MS/MS analysis; type: ADME, Microsome
NCI/ADR-RES = experiment: Antiproliferative activity against human NCI-ADR-RES cells after 72 hrs by celltiter-glo luminescent assay; type: functional, cell-based
RPMI-8226 [28] = experiment: Induction of apoptosis in human RPMI8226 cells assessed as viable cells at 1 uM after 72 hrs in presence GGOH by APC Annexin V/eFluor-780-viability double staining-based FACS analysis (reference value: 87.3%); type: functional; details: RPMI-8226, 72 h, read-out: Activity
[29] = Hepatotoxicity in Vk*MYC transgenic mouse model assessed as effect of serum AST levels at 3 mg/kg/day, ip administered over 14 days and measured at 4 hrs post last dose relative to control; type: toxicity, organism-based; details: in vivo
RPMI-8226 [30] = experiment: Induction of apoptosis in human RPMI8226 cells assessed as late apoptotic cells at 1 uM after 72 hrs in presence GGOH by APC Annexin V/eFluor-780-viability double staining-based FACS analysis (reference value: 5.80%); type: functional

Sequence of Geranylgeranyl pyrophosphate synthase (Homo sapiens, UniProt O95749, Y246D) (O95749 whole entry Y246D): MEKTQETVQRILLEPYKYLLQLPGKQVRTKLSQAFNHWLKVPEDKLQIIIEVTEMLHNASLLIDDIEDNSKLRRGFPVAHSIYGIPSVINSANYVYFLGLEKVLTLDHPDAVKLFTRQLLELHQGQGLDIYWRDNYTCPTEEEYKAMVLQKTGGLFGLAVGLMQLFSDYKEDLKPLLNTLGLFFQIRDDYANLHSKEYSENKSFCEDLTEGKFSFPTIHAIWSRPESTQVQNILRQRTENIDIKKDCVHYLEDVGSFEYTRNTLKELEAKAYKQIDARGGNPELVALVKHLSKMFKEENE

`COc1ccc(C(=O)Nc2cccc(-c3nc(NC(P(=O)(O)O)P(=O)(O)O)c4ccsc4n3)c2)cc1` showed an IC50 [1] of 92 nM.

In the case of `O=P(O)(O)C(O)(Cc1ccccn1)P(=O)(O)O`, the EC50 (RPMI-8226 [2]) is reported as 11000 nM and the Activity (Hydroxyapatite) is reported as “Active”.

In the case of `CC(C)=CCC/C(C)=C/CC/C(C)=C/CC/C(C)=C/CO` [GERANYLGERANIOL], the viability at 10 µM (RPMI-8226 [3]) is reported as 87.4%, the Activity (RPMI-8226 [4]) is reported as 4.71% and the Activity (RPMI-8226 [5]) is reported as 4.96%. It also gave an Activity (RPMI-8226 [6]) of 2.91%.

With `O.O=P(O)(O)C(O)(Cn1ccnc1)P(=O)(O)O` [ZOLEDRONIC ACID] the Activity (RPMI-8226 [7]) was 5.04%, the Activity (Hydroxyapatite) was “Active” and the Activity (RPMI-8226 [8]) was 2.55%. For the same compound, the viability at 1 µM (RPMI-8226 [9]) was 85.9% and the Activity (RPMI-8226 [10]) was 6.53%.

For `O=C(Nc1cccc(-c2cc3c(NC(P(=O)(O)O)P(=O)(O)O)ncnc3s2)c1)c1ccccc1`, the inhibition [11] was “inactive”, the inhibition [12] was “inactive” and the Activity (RPMI-8226 [13]) was “inactive”.

In the case of `CC(C)C[C@H](NC(=O)[C@H](Cc1ccccc1)NC(=O)c1cnccn1)B(O)O` [BORTEZOMIB], the Activity (RPMI-8226 [14]) is reported as 20.1%, the Activity (RPMI-8226 [15]) is reported as 78.7% and the Activity (RPMI-8226 [16]) is reported as “Active”. The viability at 0.01 µM (RPMI-8226 [17]) was 0.92% and the Activity (RPMI-8226 [18]) was 0.26%.

In the case of `O=C(Nc1ccccc1)c1cccc(-c2nc(NC(P(=O)(O)O)P(=O)(O)O)c3ccsc3n2)c1`, the EC50 (RPMI-8226 [2]) is reported as 460 nM, the Activity (Hydroxyapatite) is reported as “Active” and the IC50 [1] is reported as 50 nM. For the same compound, the IC50 [19] was 49 nM.

In the case of `COc1ccc(NC(=O)c2cccc(-c3nc(NC(P(=O)(O)O)P(=O)(O)O)c4ccsc4n3)c2)cc1F`, the Activity (RPMI-8226 [7]) is reported as 40.2%, the Activity (Hydroxyapatite) is reported as “Active” and the IC50 [20] is reported as 1400 nM. The Activity (MIA PaCa-2) was “Active”, the t1/2 [21] was 3.12 h and the Activity [22] was “Toxic”. For the same compound, the Activity (RPMI-8226 [8]) was 4.42%, the Activity (RPMI-8226 [23]) was 3.06% and the t1/2 [24] was 2.13 h. It also gave an Activity (RPMI-8226 [25]) of 5.33%, an Activity [26] of 15 to 28% and a t1/2 [27] of 2.57 h. For the same compound, the Activity (NCI/ADR-RES) was “Active”, the viability at 1 µM (RPMI-8226 [9]) was 12.3% and the viability at 1 µM (RPMI-8226 [28]) was 85.4%. For the same compound, the Activity (RPMI-8226 [10]) was 43%, the Activity [29] was “Toxic” and the Activity (RPMI-8226 [30]) was 6.18%.
